Experimental findings from patent EP4775582A1, “MACROCYCLIC COMPOUND AND ANTIBODY-DRUG CONJUGATE THEREOF” (Genfleet Therapeutics (Shanghai) Inc., priority 2023, dated 2025) are described below.

What all share (assay type): cell-based, human
In one assay the test system is H441 p-ERK. Description: Cell p-ERK assay (HTRF), NCI-H441 cells. Conditions: NCI-H441 cells (KRAS G12V), 3 h incubation. On the procedure:
(§1) The cells were digested with trypsin (containing EDTA), collected in their corresponding complete media, and counted. The density of the cell suspensions was adjusted with their corresponding complete media, and 10000 AsPC-1 cells or 20000 NCI-H441 cells per well were seeded into a 96-well cell culture plate, with the volume of the medium in each well being 80 µL. The cell culture plate was incubated in an incubator at 37 °C with 5% CO2 overnight. […] On the day after cell seeding, 20 µL of the 5× compound stock solution was added to each cell culture well. […] In addition to the compound-treated wells described above, cell-containing DMSO control wells were also set. A complete medium containing 0.5% DMSO was added at 20 µL/well. After the mixture was well mixed, the culture plate was incubated in the incubator at 37 °C with 5% CO2 for another 3 h. The medium was then removed from the culture wells, and 50 µL of cell lysis buffer (from Advance ERK phospho-T202/Y204 kit) was added to each well. The mixture was well mixed and incubated for 30 min. Then, 16 µL of the mixture was transferred to a white-bottomed, opaque 96-well assay plate, and separately, 16 µL of cell lysis buffer was added to additional wells (serving as blank wells) in the assay plate. After the transfer was completed, 4 µL of p-ERK HTRF antibody mixture (from Advance ERK phospho-T202/Y204 kit) was added to each well of the assay plate, followed by a 4-hour incubation. […] Using an XLfit software, the IR (%) values were plotted against the logarithm of the compound concentrations, and the dose-response curves were fitted using the four-parameter method to calculate the IC50 values.
A general note: In TR-FRET formats the signal depends on donor and acceptor labels being close together.

In another assay the test system is AsPC-1 p-ERK. Description: Cell p-ERK assay (HTRF), AsPC-1 cells. Conditions: for pIC50: AsPC-1 cells (KRAS G12D), 3 h incubation, read-out: AsPC-1 p-ERK IC50; for IC50: ASPC1, 3 h, read-out: AsPC-1 p-ERK IC50(nM). On the procedure:
as §1

For a further assay, the system named is NCI-H441 cells. Description: 3D cell proliferation assay (CellTiter Glo-3D), NCI-H441. The following applies: NCI-H441 cells (KRAS G12V), 2% FBS, 5 days, read-out: H441 AP IC50. The procedure: (§2) The cells were digested with trypsin (containing EDTA), collected in their respective low-serum complete media containing 2% FBS (for MIA Paca-2 cell culture: DMEM + 2% FBS + 0.5% Horse serum + 1% PS), and counted. After the cell density was adjusted as required, 200 MIA PaCa-2 cells, 800 AsPC-1 cells, 800 NCI-H441 cells, or 400 NCI-H1975 cells per well were seeded into a 384-well cell culture plate, with the volume of the medium in each well being 45 µL. The cell culture plate was incubated in an incubator at 37 °C with 5% CO2 overnight. […] On the day after cell seeding, 5 µL of the 10× compound stock solution was added to each cell culture well. […] In addition to the compound-treated wells described above, cell-containing DMSO control wells (with 5 µL of the complete medium containing 1% DMSO added to each well) and cell-free medium control wells (containing 50 µL of the complete medium with 2% FBS) were also set. The culture plate was incubated in an incubator at 37 °C with 5% CO2 for another 5 days, and then 30 µL of CellTiter-Glo working solution was added to each well. The mixture was well mixed, incubated for 30 min, left to stand at room temperature for 30 min, and then transferred to a white-bottomed, opaque 384-well assay plate at 40 µL/well. […] Using an XLfit software, the IR (%) values were plotted against the logarithm of the compound concentrations, and the dose-response curves were fitted using the four-parameter method to calculate the IC50 values.
Background: In ATP-based viability assays light output follows the ATP content of the culture.

In a further assay the test system is AsPC-1 cells. Kind of assay: 3D cell proliferation assay (CellTiter Glo-3D), AsPC-1. Conditions: for pIC50: AsPC-1 cells (KRAS G12D), 3D, 2% FBS, 5 days, read-out: AsPC-1 AP IC50; for IC50: read-out: AsPC-1 AP IC50(nM). The procedure: as §2

pIC50: −log10 of the molar value. Like-named read-outs stand apart in the source and are kept apart here.

What is called pIC50 is −log10 of the IC50, conventionally taken in molar units. For orientation: IC50 means the point on the concentration scale where inhibition reaches its midpoint.

As for `CO[C@@H](C)c1ncc(C#CCN2CCS(=O)(=O)CC2)cc1-c1c2c3cc(ccc3n1CC(C)O)-c1csc(n1)C[C@H](NC(=O)[C@H]1[C@H](C)[C@@H]1C)C(=O)N1CCC[C@H](N1)C(=O)OCC(C)(C)C2` (atropisomer, axis not shown; (Ra)) [Compound Z3, (1r,2R,3S)-N-((6^3S,4S,Z)-(Ra)-1^2-(5-(3-(1,1-dioxidothiomorpholino)prop-1-yn-1-yl)-2-((S)-1-methoxyethyl)pyridin-3-yl)-1^1-(2-hydroxypropyl)-10,10-dimethyl-5,7-dioxo-6,6',6',6^46^5,6^6-hexahydro-1^1H-8-oxa-2(4,2)-thiazola-1(5,3)-indola-6(1,3)-pyridazinacycloundecaphane-4-yl)-2,3-dimethylcyclopropane-1-carboxamide], the pIC50 in the assay on H441 p-ERK is 9.14; in the assay on AsPC-1 p-ERK, 9.23; in the assay with NCI-H441 cells, 9.55; in the assay with AsPC-1 cells, 9.74.
`CCn1c(-c2cc(C#CCN3CCS(=O)(=O)CC3)cnc2[C@H](C)OC)c2c3cc(ccc31)-c1csc(n1)C[C@H](NC(=O)[C@@H]1[C@@H](C)[C@H]1CO)C(=O)N1CCC[C@H](N1)C(=O)OCC(C)(C)C2` (atropisomer, axis not shown; (Ra)) [Compound Z7-1, (1R,2R,3S)-N-((6^3S,4S,Z)-(Ra)-1^2-(5-(3-(1,1-dioxidothiomorpholino)prop-1-yn-1-yl)-2-((S)-1-methoxyethyl)pyridin-3-yl)-1^1-ethyl-10,10-dimethyl-5,7-dioxo-6^1,6^2,6^3,6^4,6^5,6^6-hexahydro-1^1H-8-oxa-2(4,2)-thiazola-1(5,3)-indola-6(1,3)-pyridazinacycloundecaphane-4-yl)-2-(hydroxymethyl)-3-methylcyclopropane-1-carboxamide]: the pIC50 with H441 p-ERK (Homo sapiens) is 9.30; in the assay with NCI-H441 cells (Homo sapiens, 120 h), 9.49. Moreover, the IC50 with AsPC-1 p-ERK (Homo sapiens) was 0.51 nM; in the assay with AsPC-1 cells (Homo sapiens, ASPC1, 120 h) it was 0.52 nM.
Regarding `CCn1c(-c2cc(C#CCN3CCS(=O)(=O)CC3)cnc2[C@H](C)OC)c2c3cc(ccc31)-c1csc(n1)C[C@H](NC(=O)[C@H]1[C@H](C)[C@@H]1CO)C(=O)N1CCC[C@H](N1)C(=O)OCC(C)(C)C2` (atropisomer, axis not shown; (Ra)) [Compound Z7-2, (1S,2S,3R)-N-((6^3S,4S,Z)-(Ra)-1^2-(5-(3-(1,1-dioxidothiomorpholino)prop-1-yn-1-yl)-2-((S)-1-methoxyethyl)pyridin-3-yl)-1^1-ethyl-10,10-dimethyl-5,7-dioxo-6^1,6^2,6^3,6^4,6^5,6^6-hexahydro-1^1H-8-oxa-2(4,2)-thiazola-1(5,3)-indola-6(1,3)-pyridazinacycloundecaphane-4-yl)-2-(hydroxymethyl)-3-methylcyclopropane-1-carboxamide], the pIC50 with H441 p-ERK (Homo sapiens) was 9.35; in the assay on NCI-H441 cells (Homo sapiens, 120 h), 9.46. In addition, the IC50 came to 0.42 nM in the assay with AsPC-1 p-ERK (Homo sapiens) and 0.56 nM with AsPC-1 cells (Homo sapiens, ASPC1, 120 h).
With `CCn1c(-c2cc(C#CCN3CCCN(C(=O)CO)CC3)cnc2[C@H](C)OC)c2c3cc(ccc31)-c1csc(n1)C[C@H](NC(=O)[C@H]1[C@H](C)[C@@H]1C)C(=O)N1CCC[C@H](N1)C(=O)OCC(C)(C)C2` (atropisomer, axis not shown; (Ra)) [Compound Z10, (1r,2R,3S)-N-((6^3S,4S,Z)-1^1-ethyl-(Ra)-1^2-(5-(3-(4-(2-hydroxyacetyl)-1,4-diazepin-1-yl)prop-1-yn-1-yl)-2-((S)-1-methoxyethyl)pyridin-3-yl)-10,10-dimethyl-5,7-dioxo-6^1,6^2,6^3,6^4,6^5,6^6-hexahydro-1^1H-8-oxa-2(4,2)-thiazola-1(5,3)-indola-6(1,3)-pyridazinacycloundecaphane-4-yl)-2,3-dimethylcyclopropane-1-carboxamide], the pIC50 in the assay with H441 p-ERK (Homo sapiens) is 9.74; in the assay with NCI-H441 cells (Homo sapiens, 120 h) it was 9.89. Besides, the IC50 in the assay on AsPC-1 p-ERK (Homo sapiens) came out at 0.12 nM; in the assay with AsPC-1 cells (Homo sapiens, ASPC1, 120 h), 0.16 nM.
For `CCn1c(-c2cc(C#CCN3CCC(C(=O)NCCO)CC3)cnc2[C@H](C)OC)c2c3cc(ccc31)-c1csc(n1)C[C@H](NC(=O)[C@H]1[C@H](C)[C@@H]1C)C(=O)N1CCC[C@H](N1)C(=O)OCC(C)(C)C2` (atropisomer, axis not shown; (Ra)) [Compound Z12], the pIC50 is 9.82 with H441 p-ERK (Homo sapiens); 9.44 in the assay on AsPC-1 p-ERK (Homo sapiens, ASPC1); 9.68 in the assay on NCI-H441 cells (Homo sapiens, 120 h); 9.36 in the assay with AsPC-1 cells (Homo sapiens, ASPC1, 120 h).
In the case of `CCn1c(-c2cc(C#CCN3CCS(=O)(=O)CC3)cnc2[C@H](C)OC)c2c3cc(ccc31)-c1csc(n1)C[C@H](NC(=O)[C@@H](NC)C1CCCC1)C(=O)N1CCC[C@H](N1)C(=O)OCC(C)(C)C2` (atropisomer, axis not shown; (Ra)) [Compound Z15, (2S)-2-methylamino-2-cyclopentyl-N-((6^3S,4S,Z)-(Ra)-1^2-(5-(3-(1,1-dioxidothiomorpholino)prop-1-yn-1-yl)-2-((S)-1-methoxyethyl)pyridin-3-yl)-1^1-ethyl-10,10-dimethyl-5,7-dioxo-6^1,6^2,6^3,6^4,6^5,6^6-hexahydro-1^1H-8-oxa-2(4,2)-thiazola-1(5,3)-indola-6(1,3)-pyridazinacycloundecaphane-4-yl)acetamide], the pIC50 in the assay with H441 p-ERK (Homo sapiens) was 9.62; in the assay with NCI-H441 cells (Homo sapiens, 120 h), 9.46. The IC50 in the assay with AsPC-1 p-ERK (Homo sapiens) was 0.42 nM; with AsPC-1 cells (Homo sapiens, ASPC1, 120 h), 0.31 nM.
For `CCn1c(-c2cc(C#CCN3CCS(=O)(=O)CC3)cnc2[C@H](C)OC)c2c3cc(ccc31)-c1csc(n1)C[C@H](NC(=O)[C@@H](NC)C1CCC1)C(=O)N1CCC[C@H](N1)C(=O)OCC(C)(C)C2` (atropisomer, axis not shown; (Ra)) [Compound Z17, (2S)-2-methylamino-2-cyclobutyl-N-((6^3S,4S,Z)-(Ra)-1^2-(5-(3-(1,1-dioxidothiomorpholino)prop-1-yn-1-yl)-2-((S)-1-methoxyethyl)pyridin-3-yl)-1^1-ethyl-10,10-dimethyl-5,7-dioxo-6^1,6^2,6^3,6^4,6^5,6^6-hexahydro-1^1H-8-oxa-2(4,2)-thiazola-1(5,3)-indola-6(1,3)-pyridazinacycloundecaphane-4-yl)acetamide] the same measures were 9.66, 9.46, 0.26 nM and 0.46 nM.
For `CCn1c(-c2cc(C#CCN3CCCN(C(=O)CO)CC3)cnc2[C@H](C)OC)c2c3cc(ccc31)-c1csc(n1)C[C@H](NC(=O)[C@H]1[C@@H]3COC[C@@H]31)C(=O)N1CCC[C@H](N1)C(=O)OCC(C)(C)C2` (atropisomer, axis not shown; (Ra)) [Compound Z19], in that order: 9.89, 9.36, 0.24 nM and 0.41 nM.
